We go through one molecule from US20230270721A1, “INHIBITION OF BAX-MEDIATED CELL DEATH BY ELTROMBOPAG” (Albert Einstein College of Medicine, priority 2020, published 2023).

SMILES strings stand for the structures. Where two headings read alike, the source gives them in different places.

For series [1] the following is noted: cited from earlier work.
The test system of series [2] is platelets of C57BL/6J mice. Nature of the series: In vivo mouse platelet experiments. The following applies: co-administration: ABT-263 25 mg/kg + EO 100 mg/kg then 50 mg/kg 3 hrs later, oral gavage, 24 hours. The protocol:
Wild type black mice strain C57BL/6J were treated with vehicle, ABT-263 (25 mg/kg, single dose), EO (100 mg/kg, then 3 hrs later 50 mg/kg), or a combination of ABT-263 and EO. EO was formulated in dH2O, and ABT-263 was formulated in 10% ethanol, 30% polyethylene glycol 400, and 60% Phosal 50 PG. Both ABT-263 and EO were administered by oral gavage. Blood samples were collected by submandibular bleed before treatment and 24 hours following treatment, and CBC was acquired. Percentage platelet protection was calculated as follows: % Platelet Protection = (100)(Px - mPABT)/(mPv - mPABT) where Px is the platelet count for a given mouse, mPv is the mean vehicle treated platelet count, and mPABT is the mean ABT-263 treated platelet count. Statistical analysis was performed using one-way ANOVA with select multiple comparisons as shown.
Finally, whether EO can rescue thrombocytopenia induced by the activity of navitoclax was evaluated in mice. The use of navitoclax is limited by on-target toxicity triggering BAK/BAX-mediated platelet apoptosis (Zhang, H. et al. Cell Death Differ 14, 943-951 (2007)). […] This EO effect is distinct from its capacity to stimulate platelet production by differentiation of the megakaryocyte precursors and progenitor cells, which requires 5 days to begin (Erickson-Miller, C. L. et al. Stem Cells 27, 424-430 (2009); Jenkins, J. M. et al. Blood 109, 4739-4741 (2007)).

Series [3] has as its system BAK KO MEFs. Put plainly: Mitochondrial translocation of cytosolic BAX in cells. It counts as cell-based, mouse. The following applies: BIM BH3 or 2 µM staurosporine (STS); 10 or 20 µM EO. An excerpt:
FIGS. 7A, 7B, 7C, 7D, 7E, and 7F are a set of diagrams showing that eltrombopag inhibits BAX translocation and BAX-mediated apoptosis in cells. […] BAX translocation is based on antibody-based detection of BAX and mitochondrial protein TOMM20. Representative confocal micrographs from three independent biological experiments. Scale bar, 20 µm. […] Data represent ±SEM of three independent biological replicates. Two-sided t test, ****P < 0.0001; ***P < 0.001; **P < 0.01; *P < 0.05; ns, P > 0.05. […] Actin and VDAC are loading controls for cytosolic and mitochondrial fractions, respectively. FIGS. 7D and 7E show a caspase 3/7 assay of BAK-/- mouse embryonic fibroblasts (MEFs) (FIG. 7D) and BAX-/-MEFs (FIG. 7E) in response to 3 µM STS and the presence or absence of various doses of EO for 6 hr. […]
It is important to note that THPO-receptor agonist activity of EO is highly specific to the human and chimpanzee THPO-receptors, making mouse cell lines ideal for studying EO modulation of BAX-dependent activity independent of THPO-mediated effects (Erickson-Miller, C. L. et al. Stem Cells 27, 424-430 (2009)). First, mitochondrial cytochrome c release, a hallmark of BAX activation and BAX-dependent apoptosis, was evaluated. […] Next, mitochondrial translocation of cytosolic BAX upon treatment with either BIM BH3 or staurosporine (STS) in BAK KO MEFs was evaluated.

Series [4] deals with human IPSC cardiomyocytes. Nature of the series: Apoptosis detection (RealTime Glo) in doxorubicin-treated cardiomyocytes. To be noted: 5 µM Doxorubicin, 10 µM EO. It counts as cell-based.
For series [5], the target named is T1, BAX (Homo sapiens, UniProt Q07812).
T1 construct: Human full-length (1-192) wild-type BAX (Q07812); made in house; host or cells: E. coli BL21 (DE3) CodonPlus (DE3)-RIPL
T1 sequence (Q07812 whole entry): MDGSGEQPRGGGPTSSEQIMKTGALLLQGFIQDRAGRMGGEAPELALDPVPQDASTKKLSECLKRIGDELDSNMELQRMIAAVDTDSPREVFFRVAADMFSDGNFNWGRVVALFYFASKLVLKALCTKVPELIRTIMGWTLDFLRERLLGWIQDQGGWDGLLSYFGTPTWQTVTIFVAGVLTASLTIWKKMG
Put plainly: Liposomal permeabilization (ANTS/DPX release) assay. It counts as biochemical. The following applies: for IC50: 30 minutes. The protocol:
Lipids (Avanti Polar Lipids) at the following ratio, phosphatidylcholine 48%, phosphatidylinositol 10%, dioleoyl phosphatidylserine 10%, phosphatidylethanolamine, 28%, and tetraoleoyl cardiolipin 4%, were mixed in a total of 1 mg, dried and resuspended in 10 mM HEPES, pH 7, 200 mM KCI, and 5 mM MgCl2 with 12.5 mM 8-aminonaphthalene-1,3,6-trisulfonic acid (ANTS) dye and 45 mM p-xylene-bis-pyridinium bromide (DPX) quencher (Molecular Probes) using a water bath sonicator. Liposomes were formed by extrusion of the suspension using Avanti Mini-Extruder (Cat # 610000) with polycarbonate membranes of 0.1 µm pore size (Avanti Polar Lipids). ANTS/DPX encapsulated liposomes were purified from non-encapsulated ANTS/DPX by gel filtration of a 10 mL CL2B-Sepharose (GE Healthcare Life Sciences) gravity-flow column. BAX (50-250 nM) was combined with tBID, BIM, and EO at the indicated concentrations to a volume of 90 µL. Reactions were initiated by the addition of […] of the encapsulated ANTS/DPX liposome stock. ANTS/DPX release was quantified based on the increase in fluorescence intensity that occurs when the ANTS fluorophore is separated from the DPX quencher upon release from the liposomes into solution. Fluorescence (λex = 355 nm and λem = 520 nm) was measured at 1 minute intervals at room temperature (22-25° C.) indicated using a Tecan Infinite M1000 plate reader. In the case of heat activation, reactions were set up as described in the absence of tBID or BIM, and experiments were recorded at 42° C. The percentage release of ANTS/DPX at any given time point was calculated as percentage release=((F-F0)/(F100-F0))(100), where F0 and F100 are baseline and maximal fluorescence, respectively. Triton X-100 (1%) was used to determine the maximum amount of liposomal release per assay and was set to 100%.
Next, EO’s capacity to modulate BAX activity was evaluated using liposomal release assays. […] Instead, EO was able to inhibit both tBID- and BIM BH3-mediated BAX activation (FIGS. 1E, 1F, and 1G). Inhibition of tBID-mediated BAX activation by EO was inversely proportional to the concentration of the tBID activator, consistent with competitive inhibition of BH3-activator binding.

Regarding `CC1=NN(c2ccc(C)c(C)c2)C(=O)/C1=N\Nc1cccc(-c2cccc(C(=O)O)c2)c1O` [EO, eltrombopag], the “time of peak concentration” value in series [1] (after oral administration) was 2 to 6 h. Moreover, the oral bioavailability result in series [1] (in vivo, po) was “excellent oral bioavailability”. The half-life in series [1] (oral administration) was 21 to 32 h. In series [2], the navitoclax-induced platelet loss result is recorded as “markedly inhibited platelet loss to acceptable levels”. The “mitochondrial translocation of cytosolic BAX” value in series [3] is listed as “capable of inhibiting BAX translocation”. For the same molecule, the “apoptosis (cell death) induced by doxorubicin” value in series [4] is recorded as “capable of inhibiting apoptosis”. Moreover, the IC50 in series [5] (50 nM BAX and 5 nM tBID, read-out: tBID IC50, inhibition of BAX activity in liposomal release) is 2.4 µM; in series [5] (50 nM BAX, read-out: BIM IC50, inhibition of BAX activity in liposomal release), 4.7 µM; in series [5] (250 nM BAX at 42° C., read-out: heat IC50, inhibition of BAX activity in liposomal release), 4.5 µM. Further, the “ability to activate BAX in liposomal release assay” value in series [5] (concentrations up to 10 µM, no activator) is listed as “no ability to activate BAX”.
